Experimental data from US8632788B2, “Parenteral formulation for epothilone analogs” (Bristol-Myers Squibb Company, priority 2001, dated 2014).

What was measured:
[1] = Degradation of the drug during dissolution in tertiary butanol/water, lyophilization and secondary drying; format: physicochemical; settings: dissolution at 5° C. in tertiary butanol/water, lyophilization at −16° C. 48 hours, drying at 15° C. under high vacuum 48 hours, light protected
Description: [1S-[1R*,3R*(E),7R*,10S*,11R*,12R*,16S*]]-[…]-8,8,10,12,16-pentamethyl-3-[1-methyl-2-(2-methyl-4-thiazolyl)ethenyl]-4-aza-17-oxabicyclo[14.1.0]heptadecane-5,9-dione, 9.86 g, was wetted/partially dissolved with 600 mL of a 9:1 mixture of tertiary butanol and Water for Injection USP which had been pre-cooled to 5° C. Once the drug powder had become completely wetted, dissolution was completed by the addition of 600 mL of a 1:9 mixture of tertiary butanol and Water for Injection and 766 mL of a 1:1 mixture of tertiary butanol and Water for Injection which likewise had been pre-cooled to 5° C. thereby making the final solution a 1:1 mixture. The dissolution was carried out under protection from light.
The solution formed above was promptly lyophilized in a Virtis INOTOP lyophilizer at −16° C. under light protectant conditions over a period of 48 hours. The resultant lyophilized product (lyophile) was then further dried at 15° C. under high vacuum for 48 hours. […] The lyophile was packaged under sterile conditions into 30 mL vials, each containing 10 mg of drug and standard excess to allow for vial/needle/syringe loss.

[2] = Physicochemical properties of the epothilone analogs relevant to compounding (solubility, stability in aqueous media, pH, light, wetting)
Excerpt: Any one or two of these characteristics might be compensated for in compounding a pharmaceutical formulation for intravenous administration, but the combination of all of them presents a formidable challenge to the pharmaceutical compounding chemist.

[3] = Cytotoxic classification of the epothilone analogs

C/C(=C\c1csc(C)n1)C1C[C@@H]2O[C@]2(C)CCC[C@H](C)[C@H](O)[C@@H](C)C(=O)C(C)(C)[C@@H](O)CC(=O)N1 (relative stereo) [formula II, [1S-[1R*,3R*(E),7R*,10S*,11R*,12R*,16S*]]-7,11-Dihydroxy-8,8,10,12,16-pentamethyl-3-[1-methyl-2-(2-methyl-4-thiazolyl)ethenyl]-4-aza-7-oxabicyclo[14.1.0]heptadecane-5,9-dione]
degradation of the drug [1]: No detectable degradation
light sensitivity [2]: light sensitive
wetting characteristics [2]: exceptionally poor
solubility in aqueous media ([2]; aqueous media): very low solubility
degradation in contact with aqueous media ([2]; in contact with aqueous media): rapidly degrade
sensitivity to low pH ([2]; in solution): sensitive to low pH
cytotoxic class [3]: Class D
